According to patent publication US20250230226A1, “PLXDC1/PLXDC2 ACTIVATORS AND THEIR USE IN THE TREATMENT OF BLOOD VESSEL DISORDERS” (THE REGENTS OF THE UNIVERSITY OF CALIFORNIA, priority 2019, published 2025):

System: LL/2 lung cancer tumor endothelial cells
Assay: Lung LL2 ex vivo model of tumor angiogenesis
Assay type: cell-based, mouse
Conditions: for 48 hrs (morphology observations): LL/2 tumor endothelial cells; for Cell death: drug treatment for two days, ratio of red area to total endothelial cell area; for cytotoxicity at 40 µM: Mus musculus, Endothelial cell, 48 h, read-out: Cell death
Experimental: An ex vivo tumor angiogenesis model was developed to test the efficacy of anti-cancer candidate agents. The following protocol describes the Ex Vivo Tumor Angiogenesis Model.
• 1. The day before the experiment, all necessary tools were sprayed with 70% ethanol and sterilized under UV light overnight, including blade, dissecting and micro-dissecting scissors and […]. 24-well dishes were placed at 4° C. to pre-chill plates and Matrigel was thawed, 24 hours before tumor dissection. • 2. 70% ethanol was sprayed on working bench. Two sterile petri dishes were prepared with 10 ml sterile PBS. The following steps 3 and 4 are necessary for mouse tumor models. For fresh human tumor, steps 3 and 4 are skipped. • 3. The tumor-bearing mice were euthanized. 70% ethanol was sprayed on the mouse and the tumor was removed using sterilized dissecting tools (avoid the fur). The tumor was rinsed in petri dish with sterile PBS to remove ethanol and fur. The tumor was transferred to a new petri dish with PBS for dissection. The dish is placed on ice. • 4. Pre-chilled sterile pipet tips were used to seed regular Matrigel in 24 well plates on ice. Matrigel (30 μl) was dropped in the middle of each well without touching the edge of the well (avoid introducing bubbles if possible). • 5. The tumor was cut in halves using the sterile blade. Healthy tumor tissue that is not necrotic and is within the tumor capsule was identified and isolated. The healthy tumor tissue was cut into small pieces. For instance, a suitable size for the tumor tissue is 0.5 mm (H)×0.5 mm (L)×0.3 mm (D) with a total volume of 0.075 mm^3. • 6. Each tumor piece was gently transferred and embedded in the Matrigel drop in the 24-well plate. The embedded piece was placed in the bottom and middle of each Matrigel drop. The plate was kept on ice all the time. • 7. After seeding the tumor pieces, plates were incubated in a 37° C. cell culture incubator without medium for 10 minutes in order for the Matrigel to solidify. • 8. Endothelial Growth Medium (0.5 ml) was added to each well and incubated at 37° C. with 5% CO2. Treatment was not added until the new endothelial cells was grown out of the tumor or were larger than 3 mm in diameter. This usually takes 4 days for the LL2 Lewis lung cancer model and 7 days for the CT26 colon cancer model. For human tumor models, the growth time is typically 2-3 weeks, depending on the tumor type. Media was changed every 4 days during prolonged culture. Typically, when the tumor tissue grows to 2 mm in diameter, it was good for drug testing. A size of about 3 mm in diameter can make visualization easier. • 9. When the assay was ready to be analyzed for cell death (e.g., 48 hours after drug addition), the dye mixture was prepared by mixing 6 μl of green dye to stain live cells (5 mg/ml Fluorescein diacetate or FDA in DMSO) with 30 μl of red dye (2.5 mg/ml Propidium iodide or PI in PBS) to stain dead cells in an Eppendorf tube. The FDA dye needs to be stored frozen in a −20° C. freezer because it has a labile ester bond. • 10. 1 μl of the dye mixture was added to each well of the 24-well dish. It is usually preferred to do one 24-well dish at a time given the amount of time needed to take pictures (the green dye is not as stable in the cells in the long term). • 11. The dish was gently rocked a few times to mix the dye with the media in the wells and incubate the dish at 37° C. for 10 min (too long incubation can make the green signal too intense). • 12. Each well was washed with 0.5 ml of sterile PBS and then 0.5 ml of phenol red free SFM was added to each well. Alternatively 0.5 ml of regular Endothelial Cell Growth Media can be added to each well if this well needs to be continuously maintained after the experiment. • 13. An inverted microscope using the 2× objective lens was used to observe morphological changes in the experimental wells. • 14. […]

Structure (SMILES)	48 hrs (morphology observations) (40 μm)	Cell death (40 μm)	48 hrs (morphology observations) (10 μm)	Cell death (10 μm)	cytotoxicity at 40 µM
CCCCOc1ccc(S(=O)(=O)c2cnc3ccc(C(=O)OCC)cc3c2N2CCCN(CCN3CCCCC3)CC2)cc1 [Compound 181]	**** (100% of endothelial cells vesicularize in cell shape and look flattened in morphology (indicating disintegration of the cell body))	100%	–	–	–
CCCCOc1ccc(S(=O)(=O)c2cnc3ccc(C(=O)OCC)cc3c2N2CCCN(CCN3CCCC3)CC2)cc1 [Compound 182]	**** (100% of endothelial cells vesicularize in cell shape and look flattened in morphology (indicating disintegration of the cell body))	100%	–	–	–
CCOC(=O)c1ccc2ncc(S(=O)(=O)c3ccc(OC)cc3)c(-n3cncn3)c2c1 [Compound 183]	–	–	**** (100% of endothelial cells vesicularize in cell shape and look flattened in morphology (indicating disintegration of the cell body))	100%	–
CCOC(=O)c1ccc2ncc(S(=O)(=O)c3ccc(OC)cc3)c(-n3ccnn3)c2c1 [Compound 184]	–	–	0	5%	–
CCOC(=O)c1ccc2ncc(S(=O)(=O)c3ccc(OC)cc3)c(-n3cnnn3)c2c1 [Compound 185]	–	–	* (50% or less of cells vesicularize in cell shape)	30%	–
CCCCOc1ccc(S(=O)(=O)c2cnc3ccc(C(=O)OCC)cc3c2-n2cnnn2)cc1 [Compound 186]	–	–	**** (100% of endothelial cells vesicularize in cell shape and look flattened in morphology (indicating disintegration of the cell body))	90%	–
CCCCOc1ccc(S(=O)(=O)c2cnc3ccc(OC(F)(F)F)cc3c2N2CCSCC2)cc1 [Compound 187]	0	30%	–	–	–
CCCCOc1ccc(S(=O)(=O)c2cnc3ccc(C(=O)NC4C(O)O[C@H](CO)[C@@H](O)[C@@H]4O)cc3c2N2CCCN(C)CC2)cc1 (some centres unmarked) [Compound 193]	0	–	–	–	30%
CCCCOc1ccc(S(=O)(=O)c2cnc3ccc(C(=O)OCC)cc3c2N2CC[S+]([O-])CC2)cc1 [Compound 195]	0	–	–	–	–
CCCCOc1ccc(S(=O)(=O)c2cnc3ccc(C(=O)OCC)cc3c2N2CCS(=O)(=O)CC2)cc1 [Compound 196]	0	30%	–	–	–
CCCCOc1ccc(S(=O)(=O)c2cnc3ccc(OC(F)(F)F)cc3c2N2CC[S+]([O-])CC2)cc1 [Compound 197]	0	20%	–	–	–
CCCCOc1ccc(S(=O)(=O)c2cnc3ccc(OC(F)(F)F)cc3c2N2CCS(=O)(=O)CC2)cc1 [Compound 198]	0	30%	–	–	–
CCCCOc1ccc(S(=O)(=O)c2cnc3ccc(C(=O)N(CC)CC)cc3c2N2CCCN(C)CC2)cc1 [Compound 199]	0	30%	–	–	–
CCCCOc1ccc(S(=O)(=O)c2cnc3ccc(C(=O)NCCO)cc3c2N2CCCN(C)CC2)cc1 [Compound 200]	0	–	–	–	30%
CCCCOc1ccc(S(=O)(=O)c2cnc3ccc(C(=O)OCC)cc3c2N2CCN(c3ccc(F)cc3)CC2)cc1 [Compound 213]	0	–	–	–	30%
CCCCOc1ccc(S(=O)(=O)c2cnc3ccc(C(=O)OCC)cc3c2N2CCC(N3CCSCC3)CC2)cc1 [Compound 217]	0	30%	–	–	–
CCCCCCCOc1ccc(S(=O)(=O)c2cnc3ccc(SC)cc3c2N2CCC(N3CCC(O)CC3)CC2)cc1 [Compound 223]	*** (more than 50% but less than 100% of endothelial cells vesicularize in cell shape)	–	–	–	30%
CCOC(=O)c1ccc2ncc(S(=O)(=O)c3ccc(OC)cc3)c(NN3CCN(C)CC3)c2c1 [Compound 225]	0	40%	–	–	–

Structure (SMILES)	48 hrs (morphology observations) (40 μm)	Cell death (40 μm)	48 hrs (morphology observations) (10 μm)	Cell death (10 μm)	cytotoxicity at 40 µM
COc1ccc(S(=O)(=O)c2cnc3ccc(SC)cc3c2NN2CCN(C)CC2)cc1 [Compound 226]	* (50% or less of cells vesicularize in cell shape)	10%	–	–	–
COc1ccc(S(=O)(=O)c2cnc3ccc([S+](C)[O-])cc3c2NN2CCN(C)CC2)cc1 (centres unmarked) [Compound 227]	0	10%	–	–	–
COc1ccc(S(=O)(=O)c2cnc3ccc(S(C)(=O)=O)cc3c2NN2CCN(C)CC2)cc1 [Compound 228]	0	5%	–	–	–
CCCCOc1ccc(S(=O)(=O)c2cnc3ccc(SC)cc3c2N2CCC(N3CCOCC3)CC2)cc1 [Compound 229]	0	30%	–	–	–
CCCCOc1ccc(S(=O)(=O)c2cnc3ccc(SC)cc3c2N2CCC(N3CCN(CCO)CC3)CC2)cc1 [Compound 230]	*** (more than 50% but less than 100% of endothelial cells vesicularize in cell shape)	–	–	–	100%
CCCCOc1ccc(S(=O)(=O)c2cnc3ccc(SC)cc3c2N2CCC(N3CCC(N4CCCCC4)CC3)CC2)cc1 [Compound 231]	*** (more than 50% but less than 100% of endothelial cells vesicularize in cell shape)	100%	–	–	–
CCCCOc1ccc(S(=O)(=O)c2cnc3ccc(SC)cc3c2N2CCC(N3CCC(O)(c4ccccc4)CC3)CC2)cc1 [Compound 232]	0	10%	–	–	–
CCCCOc1ccc(S(=O)(=O)c2cnc3ccc(SC)cc3c2N2CCC(N3CCN(c4ccc(F)cc4)CC3)CC2)cc1 [Compound 233]	0	5%	–	–	–
CCCCOc1ccc(S(=O)(=O)c2cnc3ccc(SC)cc3c2N2CCC(N3CCCN(C)CC3)CC2)cc1 [Compound 234]	*** (more than 50% but less than 100% of endothelial cells vesicularize in cell shape)	100%	–	–	–
CCCCOc1ccc(S(=O)(=O)c2cnc3ccc([S+](C)[O-])cc3c2N2CCC(N3CCOCC3)CC2)cc1 (centres unmarked) [Compound 235]	0	10%	–	–	–
CCCCOc1ccc(S(=O)(=O)c2cnc3ccc([S+](C)[O-])cc3c2N2CCC(N3CCN(CCO)CC3)CC2)cc1 (centres unmarked) [Compound 236]	0	5%	–	–	–
CCCCOc1ccc(S(=O)(=O)c2cnc3ccc([S+](C)[O-])cc3c2N2CCC(N3CCC(N4CCCCC4)CC3)CC2)cc1 (centres unmarked) [Compound 237]	*** (more than 50% but less than 100% of endothelial cells vesicularize in cell shape)	100%	–	–	–
CCCCOc1ccc(S(=O)(=O)c2cnc3ccc([S+](C)[O-])cc3c2N2CCC(N3CCN(c4ccc(F)cc4)CC3)CC2)cc1 (centres unmarked) [Compound 239]	0	40%	–	–	–
CCCCOc1ccc(S(=O)(=O)c2cnc3ccc([S+](C)[O-])cc3c2N2CCC(N3CCC(CO)CC3)CC2)cc1 (centres unmarked) [Compound 240]	0	30%	–	–	–
CCN(CC)CCOc1ccc(S(=O)(=O)c2cnc3ccc(SC)cc3c2N2CCCN(C)CC2)cc1 [Compound 242]	0	30%	–	–	–
CCCCOc1ccc(S(=O)(=O)c2cnc3ccc(SC)cc3c2N2CCC(N3CCSCC3)CC2)cc1 [Compound 243]	0	20%	–	–	–
CCCCOc1ccc(S(=O)(=O)c2cnc3ccc(C(=O)OCC)cc3c2N2CCC(N3CC[S+]([O-])CC3)CC2)cc1 [Compound 244]	0	–	–	–	20%
CCCCOc1ccc(S(=O)(=O)c2cnc3ccc([S+](C)[O-])cc3c2N2CCC(N3CCSCC3)CC2)cc1 (centres unmarked) [Compound 245]	0	40%	–	–	–
